According to ChEMBL document CHEMBL1151725, “A cell wall-active lipopeptide from the fungus Pochonia bulbillosa” (2008):

Tested on: Neurospora crassa
Assay: Antifungal activity against Neurospora crassa os-1 mutant assessed as zone of protoplast production at 600 ng/disk after 36 to 48 hrs by microscopic examination
Format: functional

## CCCCCCCCCC(O)CCCC(=O)N[C@H](C(=O)N[C@H](C)C(=O)N[C@@H](C)C(=O)N[C@@H](C)C(=O)N[C@H](Cc1ccc(O)cc1)C(=O)N[C@H](C(=O)O)C(C)C)[C@@H](C)O (stereo partly specified)
  Activity: 20 mm
